How the values were obtained:
HepG2 = assay: antiproliferation assay, MTT method; format: cell-based, human
Procedure: (§1) Each fraction was sterilized by filtration and its 10 μl portion was placed in a well of a 96 well microtiter plate. […] The cell morphology was observed under an optical microscope. […] The absorbance at 590 nm was measured to determine a cell proliferation rate. (2) A 50 mM solution of agarobiose, agarotetraose or agarohexaose obtained in Example 3-(1) was sterilized by filtration and diluted 2-, 4-, 8-, 16-, 32-, 64- and 128-folds with sterilized water. […] [table] The number in Table 3 represents the dilution rate of the dilution added to the group whose absorbance at 590 nm was less than one-half of that of the control group to which water was added. […] Then, for agarobiose, agarotetraose and agarohexaose, the concentrations required for 50% proliferation inhibitory rate (IC50) are calculated based on the change in the absorbance at 590 nm, and are shown in Table 4.

A549 = assay: antiproliferation assay, MTT method; format: cell-based, human
Procedure: as §1

HT-29 = assay: antiproliferation assay, MTT method; format: cell-based, human
Procedure: as §1

MCF7 = assay: antiproliferation assay, MTT method; format: cell-based, human
Procedure: as §1

T24 = assay: antiproliferation assay, MTT method; format: cell-based, human
Procedure: as §1

RPMI1788 = assay: antiproliferation assay, MTT method; format: cell-based, human
Procedure: as §1

MKN45 = assay: antiproliferation assay, MTT method; format: cell-based, human
Procedure: as §1

HCT116 = assay: antiproliferation assay, MTT method; format: cell-based, human
Procedure: as §1

WiDr = assay: antiproliferation assay, MTT method; format: cell-based, human
Procedure: as §1

HeLa S3 = assay: antiproliferation assay, MTT method; format: cell-based, human
Procedure: as §1

T-47D = assay: antiproliferation assay, MTT method; format: cell-based, human
Procedure: as §1

RAW264.7 = assay: antiproliferation assay, MTT method; format: cell-based, mouse
Procedure: as §1

HL-60 cells [1] = assay: antiproliferation assay, MTT method, absorbance at 590 nm; format: cell-based, human; details: HL-60
HL-60 cells [2] = assay: viable cell count with Trypan Blue under a microscope; format: cell-based, human; details: final concentration 250 μM or 125 μM
Procedure: Agarobiose, agarotetraose, agarohexaose and agarooctaose (hereinafter, sometimes, these oligosuccharaides are referred to as agarooligosaccharides) obtained in Example 5 were dissolved in water at a concentration of 2.5 mM or 1.25 mM separately, and were sterilized by filtration. HL-60 cells were suspended in RPMI 1640 medium containing 10% fetal bovine serum at a concentration of 2.5×10^5 cells/4.5 ml and to this suspension was added 0.5 ml of each of the oligosaccharide solutions. The resultant mixture were incubated with 5% CO2 at 37° C. for 24 hours or 48 hours. A part of the cell culture was taken up, followed by addition of Trypan Blue thereto and observing under a microscope to count the number of viable cells.
That is, FIG. 14 illustrates the relation between the incubation time and the number of viable cells when HL-60 cells were cultured with addition of one of the oligosaccharides at the final concentration of 250 μM. FIG. 15 illustrates the relation between the incubation time and the number of viable cells when HL-60 cells were cultured with addition of one of the oligosaccharides at the final concentration of 125 μM. In FIGS. 14 and 15, the horizontal axes represent the incubation time (hrs.) and the vertical axes represent the number of viable cells (× 10^5/5 ml). The closed circle (●) represents the addition of water (control), the open diamond (⋄) represents the addition of agarobiose, the open circle (◯) represents the addition of agarotetraose, the open triangle (Δ) represents the addition of agarohexaose and the open square (□) represents the addition of agarooctaose.

HT-1080 = assay: antiproliferation assay, MTT method; format: cell-based
Procedure: as §1

A-172 = assay: antiproliferation assay, MTT method; format: cell-based
Procedure: as §1

iNOS = iNOS expression by western blotting and RT-PCR; format: cell-based; details: protein level by western blotting, messenger RNA level by RT-PCR
Procedure: The confirmation was carried out at protein level by western blotting and at messenger RNA level by RT-PCR. That is, the compounds used in the present invention are useful for treating and preventing diseases that require inhibition of NO production by inhibiting expression of iNOS which is overexpressed by various factors to produce excess NO.

[3] = dilution rate 1 corresponds to 5 mM in medium
[4] = read-out: IC50 (concentration required for 50% proliferation inhibitory rate)

In the case of OC[C@H]1O[C@@H](O[C@H]2[C@H]3OC[C@@H]2O[C@@H](O[C@H]2[C@@H](O)[C@@H](CO)O[C@@H](O[C@H]4[C@H]5OC[C@@H]4O[C@@H](O[C@H]4[C@@H](O)[C@@H](CO)O[C@@H](O[C@H]6[C@H]7OC[C@@H]6OC(O)[C@H]7O)[C@@H]4O)[C@H]5O)[C@@H]2O)[C@H]3O)[C@H](O)[C@@H](O)[C@H]1O (mixture of isomers) [Agarohexaose, agarohexaose], the “dilution rate of the dilution added to the group whose absorbance at 590 nm was less than one-half of that of the control group” value (“dilution rate of the dilution added” below) (HepG2; [3]) is reported as 16, the IC50 (HepG2; [4]) is reported as 430 µM and the “dilution rate of the dilution added” value (A549; [3]) is reported as 16. For the same molecule, the IC50 (A549; [4]) was 279 µM, the “dilution rate of the dilution added” value (HT-29; [3]) was 32 and the IC50 (HT-29; [4]) was 144 µM. The “dilution rate of the dilution added” value (MCF7; [3]) was 16, the IC50 (MCF7; [4]) was 238 µM and the “dilution rate of the dilution added” value (T24; [3]) was 8. For the same molecule, the IC50 (T24; [4]) was 365 µM, the “dilution rate of the dilution added” value (RPMI1788; [3]) was 128 and the IC50 (RPMI1788; [4]) was 22 µM. For the same molecule, the “dilution rate of the dilution added” value (MKN45; [3]) was 16, the IC50 (MKN45; [4]) was 166 µM and the “dilution rate of the dilution added” value (HCT116; [3]) was 32. For the same molecule, the IC50 (HCT116; [4]) was 136 µM, the “dilution rate of the dilution added” value (WiDr; [3]) was 16 and the IC50 (WiDr; [4]) was 334 µM. For the same molecule, the “dilution rate of the dilution added” value (HeLa S3; [3]) was 16, the IC50 (HeLa S3; [4]) was 334 µM and the “dilution rate of the dilution added” value (T-47D; [3]) was 16. For the same molecule, the IC50 (T-47D; [4]) was 158 µM, the “dilution rate of the dilution added” value (RAW264.7; [3]) was 32 and the IC50 (RAW264.7; [4]) was 109 µM. For the same molecule, the “dilution rate of the dilution added” value (HL-60 cells [1]; 50 mM solution diluted 2- to 128-fold, dilution rate 1 corresponds to 5 mM in the cell culture medium) was 64, the IC50 (HL-60 cells [1]; [4]) was 78 µM and the apoptosis corpuscles (HL-60 cells [2]) was “apoptosis corpuscles were observed”. The “number of viable cells as compared with the group to which water was added” value (HL-60 cells [2]; 24 hours or 48 hours) was “decreased”, the “dilution rate of the dilution added” value (HT-1080; [3]) was 16 and the IC50 (HT-1080; [4]) was 185 µM. For the same molecule, the “dilution rate of the dilution added” value (A-172; [3]) was 16, the IC50 (A-172; [4]) was 151 µM and the “inhibition of iNOS expression” value (iNOS) was “inhibit this iNOS expression”.
